Results published in patent publication USRE30886E, “Method and composition for reducing blood glucose levels” (Nippon Shinyaku Company Ltd., priority 1975, dated 1982).

Key:
[1] = test system: Glucose-administered Rats; assay: Inhibitory action against increase of glucose in blood of glucose-administered rats; assay type: in vivo, Male Sprague Dawley rats; details: with 2 g/kg glucose; for Blood Glucose Concentration: 5 rats
Protocol: Male Sprague Dawley rats with body weights ranging from 150 to 200 grams were fasted overnight, and then 2 g/kg of glucose was administered orally by using a stomach tube. The compound of this invention was also administered simultaneously in an amount of 10 to 100 mg/kg, and blood was drawn from the tail vein of each rat at suitable time intervals, and blood glucose levels were measured according to a method using glucose oxidase (Blood Sugar Test, TC-M-III, Boehringer Mannheim A.G.).

[2] = test system: Sucrose-Administered Rats; assay: Inhibitory action against increase of blood glucose for sucrose-administered rats; assay type: in vivo, Male Sprague Dawley rats; details: with 2 g/kg sucrose
Protocol: Male Sprague Dawley rats with body weight of 150 to 200 grams were fasted overnight, and 2 g/kg of sucrose was administered orally by using a stomach tube. The compound of this invention was simultaneously administered in a similar way at the rate of 1 to 100 mg/kg, and blood was drawn from the tail vein of each rat at suitable time intervals and blood glucose levels were measured by a method using glucose oxidase.

[3] = test system: Starch-Administered Rats; assay: Inhibitory action against increase of blood glucose for starch-administered rats; assay type: in vivo, Male Sprague Dawley rats; details: with 1 g/kg starch; for Blood Glucose Concentration: 5 rats
Protocol: Male Sprague Dawley rats with body weight of 150 to 200 grams were fasted overnight, and 1 g/kg of starch was administered orally by using a stomach tube. The compound of this invention was simultaneously administered at the dose of 10 to 100 mg/kg, and blood was drawn from the tail vein of each rat and blood glucose levels were examined by a method using glucose oxidase.

[4] = Acute toxicity (LD50) in mice; assay type: in vivo; details: mouse, in vivo
[5] = test system: mice; assay: Acute toxicity (LD50) in mice; assay type: in vivo
[6] = test system: healthy; assay: Glucose level in the blood of healthy man after oral carbohydrate; assay type: in vivo, human; details: 1 to 1000 mg/kg orally, with 50 to 100 grams of glucose
[7] = test system: rats; assay: Antidiabetic action model: glucose level in blood of rats given glucose orally; assay type: in vivo, Male Sprague Dawley rats; details: 1 to 1000 mg/kg, with glucose 0.5 to 4 g/kg orally
Protocol: Male Sprague Dawley rats of body weight of 150 to 200 grams are fasted overnight and glucose is then administered orally at the rate of 0.5 to 4 g/kg by using a stomach tube. Blood is drawn from the tail vein of each rat at suitable time intervals to determine glucose level in the blood. The glucose content in the blood increases rapidly to cause hyperglycemia.

[8] = test system: lipid biosynthesis; assay: Ability to inhibit lipid biosynthesis
[9] = test system: humans and other animals; assay: Ability to inhibit or reduce the increase of glucose levels in humans and other animals; assay type: in vivo; details: upon administration of glucose or a glucose producing carbohydrate
[10] = 10 mg/kg oral, 0 min after administration
[11] = 10 mg/kg oral, 15 min after administration
[12] = 10 mg/kg oral, 30 min after administration
[13] = 10 mg/kg oral, 60 min after administration
[14] = 100 mg/kg oral, 0 min after administration
[15] = 100 mg/kg oral, 15 min after administration
[16] = 100 mg/kg oral, 30 min after administration
[17] = 100 mg/kg oral, 60 min after administration

Structure (SMILES): OC[C@H]1NC[C@H](O)[C@@H](O)[C@@H]1O [compound of this invention, 2(R),3(R),4(R),5(S)-2-hydroxymethyl-3,4,5-trihydroxypiperidine]
- Blood Glucose Concentration [1, 10]: 59 mg %
- Blood Glucose Concentration [1, 11]: 100 mg %
- Blood Glucose Concentration [1, 12]: 108 mg %
- Blood Glucose Concentration [1, 13]: 107 mg %
- Blood Glucose Concentration [1, 14]: 52 mg %
- Blood Glucose Concentration [1, 15]: 59 mg %
- Blood Glucose Concentration [1, 16]: 58 mg %
- Blood Glucose Concentration [1, 17]: 63 mg %
- Increase of glucose in the blood ([1]; 100 mg/kg): totally inhibited
- Blood Glucose Concentration ([2]; 1 mg/kg oral, 0 min after administration, 5 rats): 69 mg %
- Blood Glucose Concentration ([2]; 1 mg/kg oral, 15 min after administration, 5 rats): 98 mg %
- Blood Glucose Concentration ([2]; 1 mg/kg oral, 30 min after administration, 5 rats): 121 mg %
- Blood Glucose Concentration ([2]; 1 mg/kg oral, 60 min after administration, 5 rats): 127 mg %
- Blood Glucose Concentration ([2]; 10 mg/kg oral, 0 min after administration, 6 rats): 47 mg %
- Blood Glucose Concentration ([2]; 10 mg/kg oral, 15 min after administration, 6 rats): 57 mg %
- Blood Glucose Concentration ([2]; 10 mg/kg oral, 30 min after administration, 6 rats): 52 mg %
- Blood Glucose Concentration ([2]; 10 mg/kg oral, 60 min after administration, 6 rats): 97 mg %
- Increase of glucose in the blood ([2]; 10 mg/kg): totally inhibited
- Blood Glucose Concentration ([2]; 100 mg/kg oral, 0 min after administration, 5 rats): 52 mg %
- Blood Glucose Concentration ([2]; 100 mg/kg oral, 15 min after administration, 5 rats): 66 mg %
- Blood Glucose Concentration ([2]; 100 mg/kg oral, 30 min after administration, 5 rats): 63 mg %
- Blood Glucose Concentration ([2]; 100 mg/kg oral, 60 min after administration, 5 rats): 64 mg %
- Blood Glucose Concentration [3, 10]: 53 mg %
- Blood Glucose Concentration [3, 11]: 67 mg %
- Blood Glucose Concentration [3, 12]: 80 mg %
- Blood Glucose Concentration [3, 13]: 83 mg %
- Blood Glucose Concentration [3, 14]: 52 mg %
- Blood Glucose Concentration [3, 15]: 57 mg %
- Blood Glucose Concentration [3, 16]: 63 mg %
- Blood Glucose Concentration [3, 17]: 59 mg %
- Increase of glucose in the blood ([3]; 100 mg/kg): totally inhibit increase of glucose in the blood
- LD50 ([4]; intravenous administration): > 800 mg/kg
- LD50 ([4]; oral administration): > 1200 mg/kg
- toxicity [5]: very low
- rise of the glucose content in the blood [6]: rise of the glucose content in the blood is inhibited corresponding to the dosage
- rise of the glucose content in the blood [7]: rise of the glucose content in the blood is inhibited
- inhibition of lipid biosynthesis [8]: inhibit lipid biosynthesis
- increase of glucose levels [9]: inhibit or reduce the increase of glucose levels
